Measurements reported in patent US12540117B2, “Aniline compound used as RORγ regulator” (SHANGHAI LITEDD CO., LTD., priority 2020, dated 2026).

What was measured:
RORγt = target: T1, RORγt (Homo sapiens, UniProt P51449); assay: In vitro luciferase reporter assay of RORγt inhibition (GAL4-RORγ-LBD in HEK293T); settings: for IC50: IC50, RORγt luciferase reporter gene, HEK293T; for Emax % / Emax: relative maximum inhibition rate relative to AZD-0284 at 10 μM; for Emax: HEK-293T
T1 sequence (P51449 269-508 limits assumed): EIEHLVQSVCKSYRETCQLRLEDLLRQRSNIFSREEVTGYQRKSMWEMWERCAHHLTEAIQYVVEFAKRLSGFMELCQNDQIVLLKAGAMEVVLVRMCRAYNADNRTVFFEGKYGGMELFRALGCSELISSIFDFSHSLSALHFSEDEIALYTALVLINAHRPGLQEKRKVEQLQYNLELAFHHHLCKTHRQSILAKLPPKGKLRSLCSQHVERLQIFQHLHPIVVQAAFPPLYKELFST
Description: The RORγ-LBD coding sequence was inserted into pBIND plasmid (Promega, E1581). The expression vector and a reporter vector (pGL4.35 carrying a stably integrated luciferase reporter gene driven by GAL4 promoter) were co-expressed in HEK293T host cells. When the inhibitor binds to the corresponding chimeric receptor, the chimeric receptor binds to the GAL4 binding site on the reporter gene carrier and inhibits reporter gene expression. The inhibition activity of the compounds on RORγ was determined according to the intensity of the chemiluminescence signal.
2.2 Cell Transfection • a) Balancing the Trans-IT transfection reagent at room temperature; • b) Adding 20 μl of the transfection reagent and 600 μl of Opti-MEM™ medium without contacting the tube wall, mixing uniformly through blowing and pipetting by a pipette gun, and allowing to stand at room temperature for 5 minutes; • c) Adding 10 μg of the plasmid to the transfection reagent (see Step 2.2.b), and allowing to stand at room temperature for 20 minutes; • Plasmids: 5 μg of pBIND-RORγ and 5 μg of pGL4.35 plasmids were respectively added therein; • d) Adding the mixed DNA transfection reagent to a 100 mm cell culture dish (see Step 2.1); • e) Placing the dish in an incubator at 37° C. and 5% CO2 for 5 h. […] Calculation of % Inhibition
[formula] • RLUcmpd: fluorescence value of test compounds • RLUpositive: average value of positive control • RLUvehicle: average value of negative control
IC50s of the compounds were calculated by fitting the % Inhibition and the logarithm values of the compound concentration using Graphad 8.0.

[1] = Pharmacokinetic (PK) assay in mice; format: in vivo, C57BL/6 mice; settings: for AUC(0-t) / Cmax / half-life / Vd / bioavailability: C57BL/6, mouse, plasma; for Vd: read-out: Vss; for bioavailability: Po 5 mg/kg vs IV 1 mg/kg
Experimental: The PK of each compound was determined as follows: 6 C57BL/6 mice (obtained from Shanghai Lingchang Biotechnology Co., Ltd.) were divided into two groups with 3 in each group. One group was administered intravenously at a dose of 1 mg/kg in the vehicle of 5% DMSO/95% (20% Captisol); the other group was administered by oral gavage at a dose of 5 mg/kg in the vehicle of 0.5% CMC-Na/0.5% Tween 80. Blood samples were collected from saphenous vein of lower leg in each group at 0, 0.083, 0.25, 0.5, 1, 2, 4, 6, 8 and 24 h after administration. Approximately 40 μL of the blood samples were collected into anticoagulant tubes containing EDTA-K2 Immediately after collection, the tubes were inverted at least 5 times to ensure uniform mixing, and then placed on ice. The blood samples collected at each time point were centrifuged at 4° C., 8000 rpm for 5 minutes to obtain plasma. Another 1.5 mL centrifuge tube was marked with the compound name, animal number, and time point, and the plasma was transferred to this tube. The plasma was stored at −80° C. until analysis.
Compound concentrations in the plasma were determined by UPLC-MS/MS method, and the pharmacokinetic parameters were calculated from the obtained data by Phoenix WinNolin 6.4 pharmacokinetic software.

[2] = Metabolic stability in human liver microsomes; format: in vitro ADME
Description: (§1) According to standard methods for investigating in vitro metabolic stability in the art, e.g., the methods described in Kerns, Edward H. and Di Li (2008). Drug-like Properties: Concepts, Structure Design and Methods: from ADME to Toxicity Optimisation. San Diego: Academic Press; Di, Li et al., Optimisation of a Higher Throughput Microsomal Stability Screening Assay for Profiling Drug Discovery Candidates, J. Biomol. Screen. 2003, 8(4), 453, the liver microsomal metabolic stability test of the compounds of the present disclosure was carried out analogously as follows. The incubation system comprising 0.5 mg protein/mL microsomes, cofactors, and PBS, was pre-incubated at 37° C. for 3 min, and then added the substrate (i.e., the test compounds) to initiate the reaction. Samples were taken at 0, 1, 5, 10, 15, 20, 30 and 60 min from the start of the reaction, and an appropriate terminator was added to terminate the reaction. Sample treatment (n=3): appropriate samples were added respectively, vortexed and centrifuged at high speed. The supernatants were collected and detected for the substrate by HPLC-MS/MS. The peak area at the 0 mm was taken as 100%. The peak areas at other time points were converted to percentages of remaining. The natural logarithms of the percentages of remaining at each time point was plotted against the incubation time, and the slope (−k) was calculated by linear regression. Then, Clint (μL/min/mg) and half-life (T½, min.) of the compounds were calculated following the equation: Inherent clearance rate (Clint)=(k*Volume of incubation solution)/Mass of liver microsomes.

[3] = Metabolic stability in mouse liver microsomes; format: in vitro ADME, CD-1 mice
Description: as §1

SMILES	IC50 (RORγt) [nM]	Emax (RORγt) [%]	further results
CCS(=O)(=O)c1ccc2c(c1)CCN(C(C)=O)C2C(=O)Nc1ccc(C(O)(C(F)(F)F)C(F)(F)F)cc1 (single isomer, unassigned) [Example 3, (S)-2-acetyl-6-(ethylsulfonyl)-N-(4-(1,1,1,3,3,3-hexafluoro-2-hydroxypropan-2-yl)phenyl)-1,2,3,4-tetrahydroisoquinoline-1-carboxamide or (R)-2-acetyl-6-(ethylsulfonyl)-N-(4-(1,1,1,3,3,3-hexafluoro-2-hydroxypropan-2-yl)phenyl)-1,2,3,4-tetrahydrosoquinoline-1-carboxamide]	681	–	Emax % (RORγt): 111.3%
CCS(=O)(=O)c1ccc2c(c1)CCN(C(C)=O)C2C(=O)Nc1ccc(C(F)(C(F)(F)F)C(F)(F)F)cc1 (single isomer, unassigned) [Example 8, (R)-2-acetyl-6-(ethylsulfonyl)-N-(4-(perfluoropropan-2-yl)phenyl)-1,2,3,4-tetrahydroisoquinoline-1-carboxamide or (S)-2-acetyl-6-(ethylsulfonyl)-N-(4-(perfluoropropan-2-yl)phenyl)-1,2,3,4-tetrahydroisoquinoline-1-carboxamide]	3.78	99.2	–
CCS(=O)(=O)c1ccc2c(c1)CCN(C(C)=O)C2C(=O)Nc1ccc(C(F)(C(F)(F)F)C(F)(F)F)cc1 (single isomer, unassigned) [Example 9, (S)-2-acetyl-6-(ethylsulfonyl)-N-(4-(perfluoropropan-2-yl)phenyl)-1,2,3,4-tetrahydroisoquinoline-1-carboxamide or (R)-2-acetyl-6-(ethylsulfonyl)-N-(4-(perfluoropropan-2-yl)phenyl)-1,2,3,4-tetrahydroisoquinoline-1-carboxamide]	616	–	Emax % (RORγt): 107.1%
CC(=O)N1Cc2cc(S(C)(=O)=O)ccc2[C@@H]1C(=O)Nc1ccc(C(O)(C(F)(F)F)C(F)(F)F)cc1 [AZD-0284, reference compound]	–	–	AUC(0-t) ([1]; IV, 1 mg/kg): 1180 ng·h/mL; Cmax ([1]; IV, 1 mg/kg): 2480 ng/mL; half-life ([1]; IV, 1 mg/kg): 7.75 h; Vd ([1]; IV, 1 mg/kg): 6.29 L/kg; bioavailability [1]: 38%; AUC(0-t) ([1]; Po, 5 mg/kg): 2780 ng·h/mL; Cmax ([1]; Po, 5 mg/kg): 264 ng/mL; half-life ([1]; Po, 5 mg/kg): 3.35 h; CL_obs ([1]; IV, 1 mg/kg): 12.6 mL/min/kg
CCS(=O)(=O)c1ccc2c(c1)CCN(C(=O)CCC(=O)O)C2C(=O)Nc1ccc(C(O)(C(F)(F)F)C(F)(F)F)cc1 (stereo not shown) [Example 4, 4-(6-(Ethylsulfonyl)-1-((4-(1,1,1,3,3,3-hexafluoro-2-hydroxypropan-2-yl)phenyl)carbamoyl)-3,4-dihydroisoquinolin-2(1H)-yl)-4-oxobutanoic acid]	3050	73.8	–
CC(=O)N1CCc2cc(S(C)(=O)=O)ccc2C1C(=O)Nc1ccc(C(O)(C(F)(F)F)C(F)(F)F)cc1 (stereo not shown) [Example 5, 2-Acetyl-N-(4-(1,1,1,3,3,3-hexafluoro-2-hydroxypropan-2-yl)phenyl)-6-(methylsulfonyl)-1,2,3,4-tetrahydroisoquinoline-1-carboxamide]	–	–	AUC(0-t) ([1]; IV, 1 mg/kg): 1190 ng·h/mL; Cmax ([1]; IV, 1 mg/kg): 1890 ng/mL; half-life ([1]; IV, 1 mg/kg): 4.89 h; Vd ([1]; IV, 1 mg/kg): 3.34 L/kg; bioavailability [1]: 213%; AUC(0-t) ([1]; Po, 5 mg/kg): 12600 ng·h/mL; Cmax ([1]; Po, 5 mg/kg): 1370 ng/mL; half-life ([1]; Po, 5 mg/kg): 4.33 h; CL_obs ([1]; IV, 1 mg/kg): 13.8 mL/min/kg; half-life ([2]; 0.5 mg protein/mL): > 2.42 h; Remaining % (T = 60 min) ([2]; T = 60 min): 85.0%; microsomal CLint ([2]; read-out: CLint(mic)): < 9.6 µL/min/mg; half-life ([3]; CD-1, 0.5 mg protein/mL): > 2.42 h; microsomal CLint ([3]; CD-1, read-out: CLint(mic)): < 9.6 µL/min/mg; Remaining % (T = 60 min) ([3]; T = 60 min): 86.6%
CCS(=O)(=O)c1ccc2c(c1)CCN(C(C)=O)C2C(=O)Nc1ccc(C(O)(C(F)(F)F)C(F)(F)F)cc1F (stereo not shown) [Example 10, 2-Acetyl-6-(ethylsulfonyl)-N-(2-fluoro-4-(1,1,1,3,3,3-hexafluoro-2-hydroxypropan-2-yl)phenyl)-1,2,3,4-tetrahydroisoquinoline-1-carboxamide]	40.5	102	–
CC(=O)N1CCc2cc(S(C)(=O)=O)ccc2C1C(=O)Nc1ccc(C(O)(C(F)(F)F)C(F)(F)F)cc1F (stereo not shown) [Example 11, 2-Acetyl-N-(2-fluoro-4-(1,1,1,3,3,3-hexafluoro-2-hydroxypropan-2-yl)phenyl)-6-(methylsulfonyl)-1,2,3,4-tetrahydroisoquinoline-1-carboxamide]	91.3	104	–
CCS(=O)(=O)c1ccc2c(c1)CCN(C(C)=O)C2C(=O)Nc1ccc(OC(F)(F)F)cc1 (stereo not shown) [Example 12, 2-Acetyl-6-(ethylsulfonyl)-N-(4-(trifluoromethoxy)phenyl)-1,2,3,4-tetrahydroisoquinoline-1-carboxamide]	290	95.7	–
CCC(=O)N1CCc2cc(S(=O)(=O)CC)ccc2C1C(=O)Nc1ccc(C(O)(C(F)(F)F)C(F)(F)F)cc1 (stereo not shown) [Example 13, 6-(Ethylsulfonyl)-N-(4-(1,1,1,3,3,3-hexafluoro-2-hydroxypropan-2-yl)phenyl)-2-propionyl-1,2,3,4-tetrahydroisoquinoline-1-carboxamide]	154	101	–
CCS(=O)(=O)c1ccc2c(c1)CCN(C(=O)C1CC1)C2C(=O)Nc1ccc(C(O)(C(F)(F)F)C(F)(F)F)cc1 (stereo not shown) [Example 14, 2-(Cyclopropanecarbonyl)-6-(ethylsulfonyl)-N-(4-(1,1,1,3,3,3-hexafluoro-2-hydroxypropan-2-yl)phenyl)-1,2,3,4-tetrahydroisoquinoline-1-carboxamide]	83.4	98.8	–
CC(=O)N1CCc2cc(S(C)(=O)=O)ccc2C1C(=O)Nc1cc(Cl)c(C2=CCOCC2)c(Cl)c1 (stereo not shown) [Example 17, 2-Acetyl-N-(3,5-dichloro-4-(3,6-dihydro-2H-pyran-4-yl)phenyl)-6-(methylsulfonyl)-1,2,3,4-tetrahydroisoquinoline-1-carboxamide]	67.1	95.9	–
CCS(=O)(=O)c1ccc2c(c1)CCN(C(C)=O)C2C(=O)Nc1cc(Cl)c(C2=CCOCC2)c(Cl)c1 (stereo not shown) [Example 18, 2-Acetyl-N-(3,5-dichloro-4-(3,6-dihydro-2H-pyran-4-yl)phenyl)-6-(ethylsulfonyl)-1,2,3,4-tetrahydroisoquinoline-1-carboxamide]	107	95.8	–
CCS(=O)(=O)c1ccc2c(c1)CCN(C=O)C2C(=O)Nc1ccc(C(O)(C(F)(F)F)C(F)(F)F)cc1 (stereo not shown) [Example 19, 6-(Ethylsulfonyl)-2-formyl-N-(4-(1,1,1,3,3,3-hexafluoro-2-hydroxypropan-2-yl)phenyl)-1,2,3,4-tetrahydroisoquinoline-1-carboxamide]	14.7	101	–
CC(=O)N1CCc2cc(S(=O)(=O)CC3CC3)ccc2C1C(=O)Nc1ccc(C(O)(C(F)(F)F)C(F)(F)F)cc1 (stereo not shown) [Example 21, 2-Acetyl-6-((cyclopropylmethyl)sulfonyl)-N-(4-(1,1,1,3,3,3-hexafluoro-2-hydroxypropan-2-yl)phenyl)-1,2,3,4-tetrahydroisoquinoline-1-carboxamide]	12.5	102	–
CNS(=O)(=O)c1ccc2c(c1)CCN(C(C)=O)C2C(=O)Nc1ccc(C(O)(C(F)(F)F)C(F)(F)F)cc1 (stereo not shown) [Example 22, 2-Acetyl-N-(4-(1,1,1,3,3,3-hexafluoro-2-hydroxypropan-2-yl)phenyl)-6-(N-methylsulfamoyl)-1,2,3,4-tetrahydroisoquinoline-1-carboxamide]	17.8	102	–
